Test [1] has as its target T1, NAD-dependent protein deacetylase sirtuin-1 (Homo sapiens) (UniProt Q96EB6).
T1 sequence (whole entry): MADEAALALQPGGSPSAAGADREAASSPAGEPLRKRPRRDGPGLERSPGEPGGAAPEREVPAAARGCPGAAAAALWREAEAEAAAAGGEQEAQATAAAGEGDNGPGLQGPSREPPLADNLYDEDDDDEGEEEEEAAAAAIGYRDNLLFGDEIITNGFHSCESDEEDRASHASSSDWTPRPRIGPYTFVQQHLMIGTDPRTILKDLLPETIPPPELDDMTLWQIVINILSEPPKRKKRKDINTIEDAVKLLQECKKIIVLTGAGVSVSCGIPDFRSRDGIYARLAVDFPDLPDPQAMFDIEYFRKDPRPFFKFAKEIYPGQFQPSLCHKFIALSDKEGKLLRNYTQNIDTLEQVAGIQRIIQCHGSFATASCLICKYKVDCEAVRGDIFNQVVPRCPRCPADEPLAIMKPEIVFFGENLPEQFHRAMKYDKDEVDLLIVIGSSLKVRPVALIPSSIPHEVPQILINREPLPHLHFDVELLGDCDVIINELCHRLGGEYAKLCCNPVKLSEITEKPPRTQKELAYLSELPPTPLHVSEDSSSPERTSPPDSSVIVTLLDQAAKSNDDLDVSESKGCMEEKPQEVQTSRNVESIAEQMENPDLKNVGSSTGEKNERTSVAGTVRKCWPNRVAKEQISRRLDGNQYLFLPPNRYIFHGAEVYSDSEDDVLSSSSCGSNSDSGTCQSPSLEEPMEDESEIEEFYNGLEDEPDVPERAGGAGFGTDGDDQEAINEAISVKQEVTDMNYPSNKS
Briefly: Inhibition of full length recombinant human SIRT1 expressed in Escherichia coli BL21 (DE3) PLysS using Fluor-de-Lys as substrate at 10 uM by fluorimetric assay.

Test [2] has as its system MCF7. Kind of test: Cytotoxicity against human MCF7 cells assessed as growth inhibition at 10 uM after 24 hrs by MTT assay (reference value: 0.15 %). The following applies: MCF7, 24 h, read-out: GI. The test is classed as functional. Background: Formazan colour is commonly taken as a measure of viable cells.
For test [3], the system named is MDA-MB-231. Kind of test: Cytotoxicity against human MDA-MB-231 cells assessed as growth inhibition at 10 uM after 24 hrs by MTT assay (reference value: 0.23 %). The test is classed as functional. Particulars: MDA-MB-231, 24 h, read-out: GI.
Test [4] has as its target T2, NAD-dependent protein deacetylase sirtuin-2 (Homo sapiens, UniProt Q8IXJ6).
T2 sequence (Q8IXJ6 whole entry): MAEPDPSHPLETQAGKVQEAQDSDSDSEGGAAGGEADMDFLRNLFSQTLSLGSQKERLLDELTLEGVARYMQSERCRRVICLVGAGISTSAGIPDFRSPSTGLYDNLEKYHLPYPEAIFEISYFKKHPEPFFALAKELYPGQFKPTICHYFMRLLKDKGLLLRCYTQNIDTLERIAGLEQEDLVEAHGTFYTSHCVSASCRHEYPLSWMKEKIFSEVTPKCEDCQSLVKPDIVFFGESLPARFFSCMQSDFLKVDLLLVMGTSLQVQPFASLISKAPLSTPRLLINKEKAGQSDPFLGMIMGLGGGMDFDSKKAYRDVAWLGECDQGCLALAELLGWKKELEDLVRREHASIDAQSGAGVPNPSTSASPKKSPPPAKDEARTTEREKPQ
Kind of test: Inhibition of human SIRT2.

pIC50: −log10 of the molar value.

Experimental findings from ChEMBL document CHEMBL2176976, “Ethylenediamine diacetate (EDDA) mediated synthesis of aurones under ultrasound: their evaluation as inhibitors of SIRT1” (Bioorg Med Chem Lett, 2012) are described below.

`O=C1/C(=C/c2ccc(Br)cc2)Oc2ccccc21`: the inhibition (commonly how much of the control response was suppressed) in test [1] was found to be 71%. For the same compound, the figures for the inhibition of growth at 10 µM in test [2] and in test [3] were 34.5% and 30.8%, respectively.

As for `O=C1/C(=C/c2ccc(F)cc2)Oc2ccccc21`, the inhibition in test [1] was determined as 50.5%. Also, the inhibition of growth at 10 µM stood at 20.1% in test [2] and 16.5% in test [3].

As for `Cc1ccc(C(=O)Nc2ccc(S(=O)(=O)O)c3cc(S(=O)(=O)O)cc(S(=O)(=O)O)c23)cc1NC(=O)c1cccc(NC(=O)Nc2cccc(C(=O)Nc3cc(C(=O)Nc4ccc(S(=O)(=O)O)c5cc(S(=O)(=O)O)cc(S(=O)(=O)O)c45)ccc3C)c2)c1` [SURAMIN], the inhibition of growth at 10 µM came out at 32% in test [2] and 26% in test [3].

For the compound `O=C1NC(=S)NC(=O)C1=Cc1cccc2ccccc12`, in test [4], the pIC50 – broadly, −log10 of the IC50, conventionally taken in molar units – was 5.00.

On to `COc1ccc(/C=C2\Oc3ccccc3C2=O)cc1` [4'-METHOXY-AURONE], for which the inhibition in test [1] amounted to 32.5%. Besides, the inhibition of growth at 10 µM is 29.6% in test [2] and 18.1% in test [3].
